The subject of assay [1] is HUVEC (human umbrical vein endothelial cell). The assay is described as follows: Test of endothelial cell proliferation (cell count). The assay is classed as cell-based. The note with it: for endothelial cell proliferation: drug alone, increasing concentration, two days, cell count (FIGS. 5, 8 to 10). On the procedure: An HUVEC (human umbrical vein endothelial cell, Cambrex, US) cell line at 3-10 passages was incubated in an EGM2 (endothelial growth medium, Cambrex, US) culture medium under a standard culture condition (O2 95%, 5% CO2, 37° C., 100% RH). 1×10^4 Cells was divided into a 24-well plate, and cultured for a day so that the cells can be fixed into the 24-well plate. In order to allow the cells to enter interphase, the cells were washed three times with PBS, and the EGM2 culture medium was replaced by EBM2 (endothelial basal medium, Cambrex) including 1% fetal bovine serum and 1% antibiotic-antimycotic (Gibco, US), and the cells were incubated for a day. After the used medium was removed, an EBM2 including 1% fetal bovine serum and 1% antibiotic-antimycotic (Gibco) solution supplemented with a drug was added to the cells, and the cell solution was then cultured for two days. After the cell culture, morphology of the cells was observed under a microscope. Then, the cells were detached from the plate using trypsin, and counted using a hemacytometer. 0.1% DMSO dissolved in saline was used as the vehicle control.

The subject of assay [2] is pig coronary stent model. Kind of assay: Re-endothelization in pig coronary stent model (vWF staining). The assay is classed as in vivo. The method, then: All pigs receiving a surgical operation were treated with an antithrombotic agent ‘clopidogrel’ (35 mg/day) and aspirin (100 mg/day) before one week of the surgical operation. Pigs weighed 30 to 40 kg were anesthetized with ketamine (20 mg/kg IM) and xylazine (2 mg/kg IM), and their aesthesia was maintained by connecting an infusion set to their ear veins and allowing a ketamine/xylazine solution (ketamin 50 g+xylazine 10 g/500 ml saline) to flow in the ear veins according to the aesthesia state. Pig surgery regions were shaved, sterilized with betadine. Skin on the neck was cut by approximately 5 cm, and a pig carotid artery was found using a mosquito, and 1 ml of heparin (5,000 IU) was administered to pigs. Angiocardiography was performed using a SIREMOBIL 245B angiocardiographer (commercially available from Siemens). A stent (diameter: 3.0 mm; length: 15 mm) was used for surgical operation on LAD, RAD and RCX by expanding the stent at a ratio 1.3:1 of stent:vein diameter, and a position of stent transplantation was previously determined using the imaging system. […]
In order to observe a re-endothelization level by a drug, a tissue section slide of pig blood vessel was reacted at 4° C. with vWF (von willebrand factor, DakoCytomation, US) Ab that stains endothelial cells of mice. […] The tissue section slide was observed and photographed under a fluorescence microscope.

In assay [3] the test system is rat carotid artery injury model. Kind of assay: Restenosis inhibition in rat carotid artery injury model. The assay is classed as in vivo. From the text: (§1) White rats weighed 350 to 400 g were anesthetized with ketamine and xylene, and their surgery regions were shaved and sterilized with betadine. Skin on the neck region was cut by about 2 cm, and a rat carotid artery was found using a mosquito. A blood flow was prevented by hanging a thread on the carotid artery and an internal carotid artery, followed by tying an external carotid artery with a thread. A 2F forgarty catheter (Baxter, US) was inserted into a blood vessel between the external carotid artery and the carotid artery to wound a carotid artery region three times. Then, the wounded carotid artery region was tied with a thread to allow a blood flow through the carotid artery and the internal carotid artery and prevent hemorrhage between the carotid artery and the external carotid artery, and the surgery region was closed with stitches. Each of rear neck skins were cut by approximately 1 cm, and an osmotic pump containing a drug is inserted into the blood vessel and closed with stitches. After 1 week to observe the endothelial cells and 2 weeks to observe the restenosis, all blood was extracted from each subject rat using a perfusion, carotid arteries were taken from the rats and their tissue slides were made to observe their section of blood vessel. […]

In assay [4] the test system is pig coronary stent model. Kind of assay: Restenosis inhibition in pig coronary stent model. The assay is classed as in vivo. On the procedure: All pigs receiving a surgical operation were treated with an antithrombotic agent ‘clopidogrel’ (35 mg/day) and aspirin (100 mg/day) before one week of the surgical operation. Pigs weighed 30 to 40 kg were anesthetized with ketamine (20 mg/kg IM) and xylazine (2 mg/kg IM), and their aesthesia was maintained by connecting an infusion set to their ear veins and allowing a ketamine/xylazine solution (ketamin 50 g+xylazine 10 g/500 ml saline) to flow in the ear veins according to the aesthesia state. Pig surgery regions were shaved, sterilized with betadine. Skin on the neck was cut by approximately 5 cm, and a pig carotid artery was found using a mosquito, and 1 ml of heparin (5,000 IU) was administered to pigs. Angiocardiography was performed using a SIREMOBIL 245B angiocardiographer (commercially available from Siemens). A stent (diameter: 3.0 mm; length: 15 mm) was used for surgical operation on LAD, RAD and RCX by expanding the stent at a ratio 1.3:1 of stent:vein diameter, and a position of stent transplantation was previously determined using the imaging system.
After 28 days, pigs were intravenously injected with KCl (40 meq/l) under a conventional aesthesia condition to induce pig cardioplegia, and hearts were extracted pigs. […]

Assay [5] has as its system SMC (rat aortic smooth muscle cell). The assay is described as follows: Test of vascular smooth muscle cell proliferation (cell count). In kind it is cell-based. On the procedure: An SMC (rat aortic smooth muscle cell) cell line at 3-10 passages was incubated in a culture medium of SmGM (Smooth muscle cell growth medium, Cambrex) including 5% fetal bovine serum and 1% antibiotic antimycotic reagent (Gibco, US) under a standard culture condition ([…], 5% CO2, 37° C., 100% RH). 2×10^4 Cells were divided into a 24-well plate, and cultured for a day so that the cells can be fixed into the 24-well plate. The cells were washed three times with PBS, put into a solution of SmGM including 5% fetal bovine serum and 1% antibiotic-antimycotic (Gibco), and then incubated for a day. After the used medium was removed, an SmGM including 5% fetal bovine serum solution supplemented with a corresponding drug was added to the cells, and the cell solution was then cultured for two days. After the cell culture, morphology of the cells was observed under a microscope. Then, the cells were detached from the plate using trypsin, and counted using a hemacytometer. 0.1% DMSO dissolved in saline was used as the vehicle control.

Assay [6] deals with rat carotid artery injury model. Kind of assay: Re-endothelization in rat carotid artery injury model (vWF staining). The assay is classed as in vivo.
From the text: as §1

Where [7] appears, read: isoxazole derivative together with rapamycin, versus rapamycin alone (FIG. 6).

Regarding `CC(=O)O[C@H]1C(=O)[C@@]2(C)[C@H]([C@H](OC(=O)c3ccccc3)[C@]3(O)C[C@H](OC(=O)[C@H](O)[C@@H](NC(=O)c4ccccc4)c4ccccc4)C(C)=C1C3(C)C)[C@]1(OC(C)=O)CO[C@@H]1C[C@@H]2O` [paclitaxel, reference compound], in assay [1], the endothelial cell proliferation result is on record as “inhibit the proliferation of HUVEC”.
With `O=C(NCCn1cncn1)c1cc(-c2ccc(F)cc2)on1` [Derivative 35, 5-(4-fluoro-phenyl)-isoxazole-3-carboxylic acid (2-[1,2,4]triazol-1-yl-ethyl)-amide], the endothelial cell proliferation entry in assay [1] is given as “inhibit or maintain the proliferation of the endothelial cells”.
Same read-out and setting: as for `Cn1nnnc1SCCNC(=O)c1cc(-c2cccs2)on1` [Derivative 68, 5-thiophen-2-yl-isoxazole-3-carboxylic acid [2-(1-methyl-1H-tetrazol-5-yl-sulfanyl)-ethyl]-amide], the entry is “inhibit or maintain the proliferation of the endothelial cells”; as for `Cn1cnnc1S(=O)(=O)CCNC(=O)c1cc(-c2ccco2)on1` [Derivative 70, 5-furan-2-yl-isoxazole-3-carboxylic acid [2-(4-methyl-4H-[1,2,4]triazol-3-yl-sulfonyl)-ethyl]-amide], “inhibit or maintain the proliferation of the endothelial cells”.
The same measure, in the same setting: the same measure for `O=C(NCCCn1ccnc1)c1cc(-c2ccsc2)on1` [Derivative 63, 5-thiophen-3-yl-isoxazole-3-carboxylic acid (3-imidazol-1-yl-propyl)-amide]: “inhibit or maintain the proliferation of the endothelial cells”.
`O=C(NCCCn1cncn1)c1cc(-c2ccsc2)on1` [Derivative 62, 5-thiophen-3-yl-isoxazole-3-carboxylic acid (3-[1,2,4]-triazol-1-yl-propyl)-amide]: in assay [1], the endothelial cell proliferation entry is given as “inhibit or maintain the proliferation of the endothelial cells”.
On to `O=C(NCCc1ccncc1)c1cc(-c2ccco2)on1` [Derivative 5, 5-furan-2-yl-isoxazole-3-carboxylic acid (2-pyridin-4-yl-ethyl)-amide], for which the “re-endothelization on the damaged artery surface” value with pig coronary stent model [2] (4 weeks, stent with rapamycin plus derivative 5 (FIG. 15)) is reported as “significantly recovered”. Besides, the “restenotic area of the blood vessel” value in assay [3] (200 μg/kg/day for two weeks by osmotic pump, versus not administered (FIG. 11)) was “more significantly reduced in size”. In addition, in assay [3] (compound together with rapamycin versus compound only (FIG. 11, FIG. 13)), the “restenosis inhibition effect, together with rapamycin” value is “more significant restenosis inhibition effect”. Moreover, the “lumen losses of blood vessel” value in the assay with pig coronary stent model [4] (stent with 180 μg rapamycin plus 45, 90 or 180 μg derivative 5, 28 days, versus rapamycin-treated group (FIG. 14)) is listed as “further reduced”. The “cell number of vascular smooth muscle cells (VSMC)” value in assay [5] (drug alone, increasing concentration, two days (FIG. 5)) was “reduced”. Moreover, the “vascular smooth muscle cell proliferation, used together with rapamycin” value in assay [5] (setting [7]) is reported as “inhibited more significantly”. Moreover, in assay [1], the endothelial cell proliferation result is recorded as “increases or maintains the proliferation of HUVEC”. The “endothelial cell proliferation, used together with paclitaxel” value in assay [1] (isoxazole derivative together with paclitaxel, versus paclitaxel alone (FIG. 7)) was “recovered”. In addition, the “endothelial cell proliferation, used together with rapamycin” value in assay [1] (setting [7]) is on record as “recovered”. Moreover, the “re-endothelization on damaged carotid artery surface” value in assay [6] (200 μg/kg/day for two weeks, versus not administered (FIG. 12)) is “occurs more significantly”. For the same compound, in assay [6] (compound together with rapamycin versus compound only (FIG. 13)), the “re-endothelization, together with rapamycin” value is recorded as “more significantly increased”.
With `O=C(NCCCSc1nnc[nH]1)c1cc(-c2cccs2)on1` [Derivative 69, 5-thiophen-2-yl-isoxazole-3-carboxylic acid [3-(4H-[1,2,4]triazol-3-yl-sulfanyl)-propyl]-amide], in assay [1], the endothelial cell proliferation result was “inhibit or maintain the proliferation of the endothelial cells”.
As for `O=C(NCCCn1ccnc1)c1cc(-c2ccccc2)on1` [Derivative 23, 5-phenyl-isoxazole-3-carboxylic acid (3-imidazol-1-yl-propyl)-amide], in assay [1], the endothelial cell proliferation result is reported as “inhibit or maintain the proliferation of the endothelial cells”.
`O=C(NCCCn1cncn1)c1cc(-c2ccc(F)cc2)on1` [Derivative 31, 5-(4-fluoro-phenyl)-isoxazole-3-carboxylic acid (3-[1,2,4]triazol-1-yl-propyl)-amide]: in assay [1], the endothelial cell proliferation entry is listed as “inhibit or maintain the proliferation of the endothelial cells”.
On the same count and under the same terms, as for `O=C(NCCCn1cncn1)c1cc(-c2cccs2)on1` [Derivative 50, 5-thiophen-2-yl-isoxazole-3-carboxylic acid (3-[1,2,4]-triazol-1-yl-propyl)-amide], the entry is “inhibit or maintain the proliferation of the endothelial cells”.
For `O=C(NCCCn1cncn1)c1cc(-c2ccco2)on1` [Derivative 19, 5-furan-2-yl-isoxazole-3-carboxylic acid (3-[1,2,4]triazol-1-yl-propyl)-amide], the endothelial cell proliferation result in assay [1] is listed as “inhibit or maintain the proliferation of the endothelial cells”.
Same read-out and setting: as for `O=C(NCCn1ccnc1)c1cc(-c2ccco2)on1` [Derivative 4, 5-furan-2-yl-isoxazole-3-carboxylic acid (2-imidazol-1-yl-ethyl)-amide], the entry is “inhibit or maintain the proliferation of the endothelial cells”.
In the case of `CO[C@H]1C[C@@H]2CC[C@@H](C)[C@@](O)(O2)C(=O)C(=O)N2CCCC[C@H]2C(=O)O[C@H]([C@H](C)C[C@@H]2CC[C@@H](O)[C@H](OC)C2)CC(=O)[C@H](C)/C=C(\C)[C@@H](O)[C@@H](OC)C(=O)[C@H](C)C[C@H](C)/C=C/C=C/C=C/1C` [rapamycin, reference compound], the “re-endothelization rate (healing %)” value in the assay on pig coronary stent model [2] (drug-containing PLGA stent, polymer-coated stent 80.2% (FIG. 15)) came out at 67.9%. The “restenotic areas of blood vessels” value in the assay on pig coronary stent model [4] (stent with PLGA polymer and drug, after 28 days, negative control 2.74 mm^2 (FIG. 14)) turned out to be 1.80 mm^2.

Values taken from patent publication US8518978B2, “Pharmaceutical composition for prevention and treatment of restenosis comprising isoxazole derivatives” (SK Biopharmaceuticals Co., Ltd., priority 2007, dated 2013).
